Test results published in US11214594B2, “Antimicrobial peptide having synergistic antibacterial effect with antibiotics on multidrug resistant bacteria, and use thereof” (priority 2016, dated 2022).
In brackets after ≈: the same amount, converted by molar mass. Where two headings read alike, the source gives them in different places. Where a SMILES comes first, the peptide text is derived from it.

What was measured:
MRSA 3114 = type: cell-based, Staphylococcus aureus; conditions: 3114
How it was run: (§1)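 Each strain is brought to 2×10^6 CFU in nutrient-sufficient Mueller-Hinton medium and dispensed into wells. Peptide solutions, stepwise diluted 2:1 in the same medium, are then added. The minimal concentration preventing growth gives the MIC.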

MRSA 3126 = type: cell-based, Staphylococcus aureus; conditions: 3126
How it was run: as §1

MDREC 1238 = type: cell-based, Escherichia coli
How it was run: as §1

P. aeruginosa = test: microbe, parasite or virus in culture; type: cell-based, Pseudomonas aeruginosa
How it was run: as §1

MDRPA 2003 = type: cell-based, Pseudomonas aeruginosa
How it was run: as §1

MDRPA 2002 = type: cell-based, Pseudomonas aeruginosa
How it was run: as §1

MDRST 8007 = test: Minimal inhibitory concentration (MIC), single agent; type: cell-based, Salmonella typhimurium; conditions: agent alone
How it was run: as §1

MDREC 1229 [1] = test: MIC of antibiotic during combined treatment with antimicrobial peptide; type: cell-based, Escherichia coli
How it was run: (§2)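 Broth microdilution in MH medium; strains were diluted to 2×10^6 CFU per ml before plating. Peptide was serially diluted stepwise at 2:1 starting from its MIC, and MH-diluted antibiotic was then added to determine MIC. The reversed arrangement was also tested.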

S. epidermidis = test: microbe, parasite or virus in culture; type: cell-based, Staphylococcus epidermidis
How it was run: as §1

MDRAB 12035 [2] = test: MIC of antimicrobial peptide during combined treatment with antibiotic; type: cell-based, Acinetobacter baumannii
How it was run: as §2

A. baumannii [3] = test: as above; type: cell-based, Acinetobacter baumannii
How it was run: as §2

E. coli = type: cell-based, Escherichia coli; conditions: E. coli
How it was run: as §2

MDREC 1229 [4] = type: cell-based, Escherichia coli
How it was run: as §2

MDRAB 12035 [5] = test: MIC of antibiotic during combined treatment with antimicrobial peptide; type: cell-based, Acinetobacter baumannii
How it was run: as §2

S. typhimurium = test: microbe, parasite or virus in culture; type: cell-based, Salmonella typhimurium
How it was run: as §1

MDRAB 12036 = type: cell-based, Acinetobacter baumannii
How it was run: as §1

B. subtilis = test: microbe, parasite or virus in culture; type: cell-based, Bacillus subtilis
How it was run: as §1

MDRAB 12035 [6] = test: microbe, parasite or virus in culture; type: cell-based, Acinetobacter baumannii
How it was run: as §1

A. baumannii [7] = test: microbe, parasite or virus in culture; type: cell-based, Acinetobacter baumannii
How it was run: as §1

S. aureus = test: microbe, parasite or virus in culture; type: cell-based, Staphylococcus aureus
How it was run: as §1

[8] = peptide treatment concentration 1 μg/ml
[9] = peptide treatment concentration 2 μg/ml
[10] = peptide treatment concentration 4 μg/ml
[11] = peptide treatment concentration 6 μg/ml
[12] = peptide treatment concentration 8 μg/ml
[13] = peptide treatment concentration 16 μg/ml
[14] = peptide treatment concentration 32 μg/ml
[15] = peptide treatment concentration 64 μg/ml
[16] = erythromycin 4 μg/ml (Conc./MIC 1/8)
[17] = erythromycin 8 μg/ml (Conc./MIC 1/4)
[18] = erythromycin 16 μg/ml (Conc./MIC 1/2)
[19] = erythromycin 32 μg/ml (Conc./MIC 1)
[20] = linezolid 64 μg/ml (Conc./MIC 1/8)
[21] = linezolid 512 μg/ml (Conc./MIC 1)
[22] = vancomycin 512 μg/ml (Conc./MIC 1/2)
[23] = vancomycin 1024 μg/ml (Conc./MIC 1)

## CC[C@H](C)[C@H](NC(=O)[C@H](CCCCN)NC(=O)[C@H](Cc1c[nH]c2ccccc12)NC(=O)[C@@H](N)CCCNC(=N)N)C(=O)N[C@@H](Cc1ccccc1)C(=O)N[C@@H](CCCCN)C(=O)N[C@@H](CCCCN)C(=O)N[C@H](C(=O)N1CCC[C@H]1C(=O)N[C@@H](CCCCN)C(=O)N[C@@H](CC(C)C)C(=O)N[C@@H](CC(C)C)C(=O)N[C@@H](Cc1c[nH]cn1)C(=O)N[C@@H](CCC(=O)O)C(=O)N[C@@H](C)C(=O)N[C@@H](CCCCN)C(=O)N[C@@H](CCCCN)C(=O)N[C@@H](Cc1c[nH]c2ccccc12)C(N)=O)[C@@H](C)CC [PapMA-13, RWK IFK KIP KLL HEA KKW-NH2] (H-RWKIFKKIPKLLHEAKKW-NH2; N-terminus assumed)
MRSA 3114
  Minimal inhibitory concentration MIC: >128 µg/mL
MRSA 3126
  Minimal inhibitory concentration MIC: >128 µg/mL
MDREC 1238
  Minimal inhibitory concentration MIC: 16 µg/mL (≈ 6.81 µM)
P. aeruginosa
  Minimal inhibitory concentration MIC: 128 µg/mL (≈ 54.5 µM)
MDRPA 2003
  Minimal inhibitory concentration MIC: 128 µg/mL (≈ 54.5 µM)
MDRPA 2002
  Minimal inhibitory concentration MIC: 128 µg/mL (≈ 54.5 µM)
MDRST 8007
  Minimal inhibitory concentration MIC: 16 µg/mL (≈ 6.81 µM)
MDREC 1229 [1]; [8]
  Antibiotic MIC, Erythromycin: >128 µg/mL
  Antibiotic MIC, Linezolid: >128 µg/mL
  Antibiotic MIC, Vancomycin: >128 µg/mL
MDREC 1229 [1]; [9]
  Antibiotic MIC, Erythromycin: 32 µg/mL
  Antibiotic MIC, Linezolid: 128 µg/mL
  Antibiotic MIC, Vancomycin: >128 µg/mL
MDREC 1229 [1]; [10]
  Antibiotic MIC, Erythromycin: 8 µg/mL
  Antibiotic MIC, Linezolid: 64 µg/mL
  Antibiotic MIC, Vancomycin: 64 µg/mL
MDREC 1229 [1]; [11]
  Antibiotic MIC, Erythromycin: 4 µg/mL
  Antibiotic MIC, Linezolid: 8 µg/mL
  Antibiotic MIC, Vancomycin: 16 µg/mL
MDREC 1229 [1]; [12]
  Antibiotic MIC, Erythromycin: 0.5 µg/mL
  Antibiotic MIC, Linezolid: 4 µg/mL
  Antibiotic MIC, Vancomycin: 4 µg/mL
MDREC 1229 [1]; [13]
  Antibiotic MIC, Erythromycin: 0 µg/mL
  Antibiotic MIC, Linezolid: 0 µg/mL
  Antibiotic MIC, Vancomycin: 0 µg/mL
MDREC 1229 [1]; [14]
  Antibiotic MIC, Erythromycin: 0 µg/mL
  Antibiotic MIC, Linezolid: 0 µg/mL
  Antibiotic MIC, Vancomycin: 0 µg/mL
MDREC 1229 [1]; [15]
  Antibiotic MIC, Erythromycin: 0 µg/mL
  Antibiotic MIC, Linezolid: 0 µg/mL
  Antibiotic MIC, Vancomycin: 0 µg/mL
S. epidermidis
  Minimal inhibitory concentration MIC: >128 µg/mL
MDRAB 12035 [2]; [16]
  Peptide MIC during treatment with erythromycin: 4 µg/mL
MDRAB 12035 [2]; [17]
  Peptide MIC during treatment with erythromycin: 2 µg/mL
MDRAB 12035 [2]; [18]
  Peptide MIC during treatment with erythromycin: 1 µg/mL
MDRAB 12035 [2]; [19]
  Peptide MIC during treatment with erythromycin: 0 µg/mL
MDRAB 12035 [2]; [20]
  Peptide MIC during treatment with linezolid: 2 µg/mL
MDRAB 12035 [2]; [21]
  Peptide MIC during treatment with linezolid: 0 µg/mL
MDRAB 12035 [2]; linezolid […] (Conc./MIC 1/2)
  Peptide MIC during treatment with linezolid: 1 µg/mL
MDRAB 12035 [2]; linezolid […] (Conc./MIC 1/4)
  Peptide MIC during treatment with linezolid: 1 µg/mL
MDRAB 12035 [2]; [22]
  Peptide MIC during treatment with vancomycin: 1 µg/mL
MDRAB 12035 [2]; [23]
  Peptide MIC during treatment with vancomycin: 1 µg/mL
MDRAB 12035 [2]; vancomycin […] (Conc./MIC 1/4)
  Peptide MIC during treatment with vancomycin: 1 µg/mL
MDRAB 12035 [2]; vancomycin […] (Conc./MIC 1/8)
  Peptide MIC during treatment with vancomycin: 2 µg/mL
A. baumannii [3]; [16]
  Peptide MIC during treatment with antibiotic: 4 µg/mL
A. baumannii [3]; [17]
  Peptide MIC during treatment with antibiotic: 2 µg/mL
A. baumannii [3]; [18]
  Peptide MIC during treatment with antibiotic: 1 µg/mL
A. baumannii [3]; [19]
  Peptide MIC during treatment with antibiotic: 0 µg/mL
A. baumannii [3]; linezolid 32 μg/ml (Conc./MIC 1/8)
  Peptide MIC during treatment with antibiotic: 2 µg/mL
A. baumannii [3]; linezolid 64 μg/ml (Conc./MIC 1/4)
  Peptide MIC during treatment with antibiotic: 2 µg/mL
A. baumannii [3]; linezolid […] (Conc./MIC 1)
  Peptide MIC during treatment with antibiotic: 0 µg/mL
A. baumannii [3]; linezolid […] (Conc./MIC 1/2)
  Peptide MIC during treatment with antibiotic: 1 µg/mL
A. baumannii [3]; [22]
  Peptide MIC during treatment with antibiotic: 0.25 µg/mL
A. baumannii [3]; [23]
  Peptide MIC during treatment with antibiotic: 0 µg/mL
A. baumannii [3]; vancomycin […] (Conc./MIC 1/4)
  Peptide MIC during treatment with antibiotic: 0.25 µg/mL
A. baumannii [3]; vancomycin […] (Conc./MIC 1/8)
  Peptide MIC during treatment with antibiotic: 1 µg/mL
E. coli; with Erythromycin […] (Conc./MIC 1)
  Peptide MIC: 0 µg/mL
E. coli; with Linezolid […] (Conc./MIC 1)
  Peptide MIC: 0 µg/mL
E. coli; with Vancomycin 1024 μg/ml (Conc./MIC 1)
  Peptide MIC: 0 µg/mL
MDREC 1229 [4]; erythromycin 32 μg/ml (Conc./MIC 1/8)
  Peptide MIC during treatment with antibiotic: 2 µg/mL
MDREC 1229 [4]; erythromycin 64 μg/ml (Conc./MIC 1/4)
  Peptide MIC during treatment with antibiotic: 2 µg/mL
MDREC 1229 [4]; erythromycin […] (Conc./MIC 1)
  Peptide MIC during treatment with antibiotic: 0 µg/mL
MDREC 1229 [4]; erythromycin […] (Conc./MIC 1/2)
  Peptide MIC during treatment with antibiotic: 2 µg/mL
MDREC 1229 [4]; [20]
  Peptide MIC during treatment with antibiotic: 4 µg/mL
MDREC 1229 [4]; [21]
  Peptide MIC during treatment with antibiotic: 0 µg/mL
MDREC 1229 [4]; linezolid […] (Conc./MIC 1/2)
  Peptide MIC during treatment with antibiotic: 2 µg/mL
MDREC 1229 [4]; linezolid […] (Conc./MIC 1/4)
  Peptide MIC during treatment with antibiotic: 2 µg/mL
MDREC 1229 [4]; [22]
  Peptide MIC during treatment with antibiotic: 2 µg/mL
MDREC 1229 [4]; [23]
  Peptide MIC during treatment with antibiotic: 1 µg/mL
MDREC 1229 [4]; vancomycin […] (Conc./MIC 1/4)
  Peptide MIC during treatment with antibiotic: 4 µg/mL
MDREC 1229 [4]; vancomycin […] (Conc./MIC 1/8)
  Peptide MIC during treatment with antibiotic: 8 µg/mL
MDRAB 12035 [5]; [8]
  Erythromycin MIC during combined treatment with peptide: 16 µg/mL
  Linezolid MIC during combined treatment with peptide: 128 µg/mL
  Vancomycin MIC during combined treatment with peptide: 128 µg/mL
MDRAB 12035 [5]; [9]
  Erythromycin MIC during combined treatment with peptide: 8 µg/mL
  Linezolid MIC during combined treatment with peptide: 32 µg/mL
  Vancomycin MIC during combined treatment with peptide: 64 µg/mL
MDRAB 12035 [5]; [10]
  Erythromycin MIC during combined treatment with peptide: 4 µg/mL
  Linezolid MIC during combined treatment with peptide: 16 µg/mL
  Vancomycin MIC during combined treatment with peptide: 16 µg/mL
MDRAB 12035 [5]; [11]
  Erythromycin MIC during combined treatment with peptide: 1 µg/mL
  Linezolid MIC during combined treatment with peptide: 8 µg/mL
  Vancomycin MIC during combined treatment with peptide: 2 µg/mL
MDRAB 12035 [5]; [12]
  Erythromycin MIC during combined treatment with peptide: 0.5 µg/mL
  Linezolid MIC during combined treatment with peptide: 2 µg/mL
  Vancomycin MIC during combined treatment with peptide: 1 µg/mL
MDRAB 12035 [5]; [13]
  Erythromycin MIC during combined treatment with peptide: 0 µg/mL
  Linezolid MIC during combined treatment with peptide: 0 µg/mL
  Vancomycin MIC during combined treatment with peptide: 0 µg/mL
MDRAB 12035 [5]; [14]
  Erythromycin MIC during combined treatment with peptide: 0 µg/mL
  Linezolid MIC during combined treatment with peptide: 0 µg/mL
  Vancomycin MIC during combined treatment with peptide: 0 µg/mL
MDRAB 12035 [5]; [15]
  Erythromycin MIC during combined treatment with peptide: 0 µg/mL
  Linezolid MIC during combined treatment with peptide: 0 µg/mL
  Vancomycin MIC during combined treatment with peptide: 0 µg/mL
S. typhimurium
  Minimal inhibitory concentration MIC: 16 µg/mL (≈ 6.81 µM)
MDRAB 12036
  Minimal inhibitory concentration MIC: 16 µg/mL (≈ 6.81 µM)
B. subtilis
  Minimal inhibitory concentration MIC: >128 µg/mL
MDRAB 12035 [6]
  Minimal inhibitory concentration MIC: 16 µg/mL (≈ 6.81 µM)
  Peptide MIC, peptide alone: 16 µg/mL
A. baumannii [7]
  Minimal inhibitory concentration MIC: 16 µg/mL (≈ 6.81 µM)
  Peptide MIC, peptide alone: 16 µg/mL
A. baumannii [7]; A. baumannii and S. typhimurium
  Antibacterial activity relative to PapMA-1: at least twice as high
S. aureus
  Minimal inhibitory concentration MIC: >128 µg/mL
